In article PMC5797642 (Frontiers in Molecular Neuroscience, 2018):

Assays:
Kv12.1 (Elk1) [1] = biological target: T1, Kv12.1 (Elk1) (Homo sapiens, UniProt Q96L42); experiment: whole-cell patch clamp, steady-state outward current at […] mV; assay type: cell-based; conditions: activator, pH 7.4, CHO cells, room temperature
T1 construct: gene KCNH8; full-length channel from pcDNA3.1-IRES-eGFP, transient expression in CHO dhFR- cells
T1 sequence (Q96L42 1-1107): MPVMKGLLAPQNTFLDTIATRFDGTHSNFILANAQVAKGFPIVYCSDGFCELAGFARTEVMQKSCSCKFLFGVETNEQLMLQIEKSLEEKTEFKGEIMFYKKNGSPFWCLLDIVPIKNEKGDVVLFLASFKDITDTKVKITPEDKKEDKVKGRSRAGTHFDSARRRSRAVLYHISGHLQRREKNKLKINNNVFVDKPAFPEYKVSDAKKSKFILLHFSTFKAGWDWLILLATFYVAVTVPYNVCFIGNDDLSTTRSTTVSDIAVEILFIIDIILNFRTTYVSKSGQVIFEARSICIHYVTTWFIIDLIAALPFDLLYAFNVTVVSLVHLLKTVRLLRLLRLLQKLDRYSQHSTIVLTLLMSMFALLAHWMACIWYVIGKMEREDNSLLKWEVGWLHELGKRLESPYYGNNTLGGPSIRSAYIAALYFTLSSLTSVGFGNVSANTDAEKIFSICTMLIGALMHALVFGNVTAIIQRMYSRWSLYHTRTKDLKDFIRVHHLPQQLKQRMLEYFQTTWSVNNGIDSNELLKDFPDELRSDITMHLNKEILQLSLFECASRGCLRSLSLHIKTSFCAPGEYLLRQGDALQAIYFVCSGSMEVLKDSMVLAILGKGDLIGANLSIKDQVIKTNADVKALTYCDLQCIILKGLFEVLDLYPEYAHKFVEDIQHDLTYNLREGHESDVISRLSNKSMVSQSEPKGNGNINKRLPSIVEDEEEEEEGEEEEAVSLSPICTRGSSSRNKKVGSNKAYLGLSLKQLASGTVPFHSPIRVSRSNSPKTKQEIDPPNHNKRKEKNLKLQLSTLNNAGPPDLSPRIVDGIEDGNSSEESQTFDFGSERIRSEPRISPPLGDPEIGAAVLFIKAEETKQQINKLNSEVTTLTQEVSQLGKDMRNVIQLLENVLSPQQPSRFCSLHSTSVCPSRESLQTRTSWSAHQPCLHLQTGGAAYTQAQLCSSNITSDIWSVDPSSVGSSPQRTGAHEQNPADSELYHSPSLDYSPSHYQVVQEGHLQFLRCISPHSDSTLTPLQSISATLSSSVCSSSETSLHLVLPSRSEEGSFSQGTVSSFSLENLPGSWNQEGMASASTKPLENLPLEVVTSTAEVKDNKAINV

Kv12.1 (Elk1) [2] = biological target: T1, Kv12.1 (Elk1); experiment: whole-cell patch clamp; assay type: cell-based; conditions: weak inhibitor; 100 mM; n = 9; CHO cells, room temperature

| I100mM TEA/IStart (Kv12.1 (Elk1) [2]) | Structure (SMILES) | % potentiation at 3 mM (Kv12.1 (Elk1) [1]) |
| --- | --- | --- |
|  | Nc1cccnc1 [3-AP, 3-aminopyridine] | ~ 7% |
| 0.83 ± 0.01 | CC[N+](CC)(CC)CC [TEA, tetraethylammonium] |  |
